Here are results for ten compounds from publication PMC2932859 (Journal of medicinal chemistry, 2010).

“Also recorded” adds a separate entry of the source. A value given as a limit tells only on which side of the number the result lay.

Data set [1] relates to tachyzoites of RH strain of T. gondii. As to the kind of experiment: Inhibition of T. gondii tachyzoites in vitro. The class given is cell-based, Toxoplasma gondii. The settings on record: uptake of tritiated uracil.
Data set [2] has as its system human foreskin fibroblasts (HFF). As to the kind of experiment: Toxicity for host cells. The data set is classed as cell-based. As to conditions: uptake of 3H thymidine by nonconfluent HFF.
Another data set concerns the target T1, TgENR (Toxoplasma gondii, UniProt Q6UCJ9).
T1 sequence (Q6UCJ9 28-417): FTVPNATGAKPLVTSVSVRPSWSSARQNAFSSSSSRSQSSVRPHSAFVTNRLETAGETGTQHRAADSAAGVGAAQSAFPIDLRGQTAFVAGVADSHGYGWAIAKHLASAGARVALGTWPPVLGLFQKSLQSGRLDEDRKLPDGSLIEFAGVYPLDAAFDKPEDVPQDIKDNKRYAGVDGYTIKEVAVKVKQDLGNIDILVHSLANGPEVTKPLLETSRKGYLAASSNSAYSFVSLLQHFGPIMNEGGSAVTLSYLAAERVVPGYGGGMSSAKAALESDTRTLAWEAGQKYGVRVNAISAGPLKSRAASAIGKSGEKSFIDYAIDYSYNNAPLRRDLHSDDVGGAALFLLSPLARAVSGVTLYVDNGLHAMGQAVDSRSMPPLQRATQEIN
As to the kind of experiment: TgENR inhibitor assay. The class given is biochemical. As to conditions: for Inhibition of TgENR, in words: recombinant TgENR enzyme assay.

The test system of data set [3] is T. gondii (RH strain, Type 1). Kind of data set: Testing of inhibitors in vivo, acute parenteral infection of mice. Details: species or system Toxoplasma gondii. The settings on record: for Parasite burden in mice: CD1 mice infected intraperitoneally with 2000 T. gondii, inhibitors intraperitoneally at 10mg/kg, peritoneal cavity, day 5 post-infection, P<0.05; for Efficacy in protecting mice against parasite burden relative to triclosan: higher than triclosan itself.

The nature of data set [4]: Human liver microsomal stability. The class given is in vitro ADME. The settings on record: compared with control drug verapamil. On the technique in general: Microsomes from liver hold many membrane-bound enzymes, among them those of drug oxidation.
For another data set, the system named is P. falciparum ENR. As to conditions: read-out: IC50 against P. falciparum ENR; cited from earlier work.
The subject of the next data set is S. aureus ENR. The settings on record: cited from earlier work.
The next data set has as its system E. coli ENR. As to conditions: cited from earlier work.
The conditions of data set [5]: earlier studies; cited from earlier work.

Take `O=[N+]([O-])c1ccc(Oc2ccc(Cl)cc2O)c(Cl)c1` [Compound 2]: the “Effect on T. gondii tachyzoites in tissue culture, in words” value (“Effect on T. gondii tachyzoites” below) in [1] was “inhibition of T. gondii tachyzoites”. Also, the “Toxicity to fibroblasts, in words” value in data set [2] is listed as “lack of inhibition of fibroblast growth”. At TgENR, the midpoint of inhibition, the IC50, lay at 45 nM and the “Inhibition of TgENR, in words” value is given as “highly active”. In data set [3], the “Parasite burden in mice” value is given as “reduce parasite burden” and the “Efficacy in protecting mice against parasite burden relative to triclosan” value is on record as “approximately 5 times”. In addition, the “Intrinsic clearance, metabolic rate in HLM, in words” value in data set [4] is given as “slower than the control drug verapamil”. Moreover, the concentration for half-maximal inhibition (IC50) (in general, the concentration that gives 50% inhibition) in the data set with P. falciparum ENR was 200 nM.

`Oc1cc(Cl)ccc1Oc1ccc(-c2ccccc2)cc1` [Compound 6] yielded a 50% inhibitory concentration (IC50) against TgENR greater than 2000 nM.

`Oc1cc(Cl)ccc1Oc1cccnc1` [Compound 17]: the “Inhibition of TgENR, in words” value on TgENR is “some activity”.

In the case of `Oc1cc(Cl)ccc1Oc1cnccn1` [Compound 18], the “Inhibition of TgENR, in words” value at TgENR is on record as “no activity”.

`CCCc1ccc(Oc2ccc(C#N)cc2Cl)c(O)c1` [Compound 19]: the “Effect on T. gondii tachyzoites” value in data set [1] is reported as “inhibition of T. gondii tachyzoites; also recorded: efficacious”. Moreover, in data set [2], the “Toxicity to fibroblasts, in words” value is “lack of inhibition of fibroblast growth; also recorded: not toxic”. Also, in data set [3], the “Parasite burden in mice” value was “reduce parasite burden” and the “Efficacy in protecting mice against parasite burden relative to triclosan” value is listed as “approximately 5 times”. The “Intrinsic clearance, metabolic rate in HLM, in words” value in data set [4] was “slower than the control drug verapamil”.

As to `CCCc1ccc(Oc2cccc(B(O)O)c2)c(O)c1` [Compound 20, 3-(2-Hydroxy-4-propylphenoxy)phenyl boronic acid], the “Inhibition of TgENR, in words” value at TgENR was “very effective inhibitor”.

In the case of `C/C=C/C=C/C(=O)Nc1ccc(Oc2ccc(Cl)cc2O)cc1` [Compound 25, Hexa-2,4-dienoic acid (4-(4-chloro-2-hydroxyphenoxy)-phenyl)amide], the “Effect on T. gondii tachyzoites” value in data set [1] is recorded as “lack of inhibition”. For the same compound, the “Toxicity to fibroblasts, in words” value in data set [2] is reported as “toxic”.

With `O=c1cc(OCc2ccccc2)ccn1Cc1ccc([N+](=O)[O-])cc1Cl` [Compound 39], the “Effect on T. gondii tachyzoites” value in data set [1] is “inhibition of T. gondii tachyzoites”. Moreover, the “Toxicity to fibroblasts, in words” value in [2] is “lack of inhibition of fibroblast growth”. For the same compound, the “Inhibition of TgENR, in words” value at TgENR is “low micro molar; also recorded: poor inhibitor”.

Take `CN(Cc1cc2ccccc2n1C)C(=O)/C=C/c1ccc(N)nc1` [Compound 50]: the “Inhibition of TgENR, in words” value on TgENR is reported as “moderate activity”. Further, the “Activity against S. aureus ENR, in words” value with S. aureus ENR is “very effective”. Also, the “Activity against E. coli ENR, in words” value in the data set on E. coli ENR is “very effective”.

Regarding `Oc1cc(Cl)ccc1Oc1ccc(Cl)cc1Cl` [Triclosan], the “Safety in mice, in words” value in data set [5] is given as “safe”.
